≈ marks a conversion by molar mass, not a printed value. Numbered stars: 1 amine (or outer) side, 2 acyl side, 3 side chain; on linkers, the order of the positions; unused ones are H or OH. Bridge positions count the residues as written; N and C are the ends. Square brackets hold non-standard residues; d marks the D form. Peptide text beside a SMILES is read from it. * marks the point of attachment. β2hAla(R) = C[C@H](CN[*:1])C(=O)[*:2]; Decanoyl = CCCCCCCCCC(=O)*; Dap = NC[C@H](N)C(=O)O; Sar = CNCC(=O)O
Experiments:
[1] = head-to-tail type lactamisation of side-chain-protected branched depsipeptide (Gly10 N-terminus of ester branch + C-terminal Pro9), HATU/DIPEA (pH ~10), microwave; details: the molecule shown is the open-chain precursor; 28-membered ring; DCM; 6.0 mM; 70.0 °C; 1.0 h
[2] = TLC precursor-binding assay with lipid II; parameters: key to Lipid II (TLC binding): “+” indicates binding confirmed; “-” indicates no binding; “~” indicates potential binding with absence of precursor band; details: for binding to lipid II in TLC assay (in words): lipid II spot on TLC after incubation, PMA staining in Figure S6; for Lipid II (TLC binding): peptide 0.5, 1, 2 equiv. (nisin 0.1, 0.5, 1 equiv.) with lipid II in Tris·HCl pH 7.5, 50 mM CaCl2, 1 h, silica TLC
Description: (§1) Lipid II and undecaprenyl phosphate (C55-P) (1 equiv., 30 µL) in Tris•HCl buffer (0.2% Triton X-100, 26 mM MgCl2, and 50 mM CaCl2 at pH 7.5) were incubated with the peptides (0.5, 1, 2 equiv.) or nisin (0.1, 0.5, 1 equiv.) in 30 µL water for 1 h. The reaction was then extracted with ^tBuOH/6 M PyOAc (2/1 v/v, 100 µL) and the organic phase was dried using an Eppendorf vacuum centrifuge 5301 (Fisher Scientific, Loughborough, UK) under reduced pressure. The solid was redissolved in CHCl3/MeOH (1/1 v/v, 30–60 µL) for spotting onto the TLC plates. In addition to the peptide–lipid mixtures, a control of each peptide/nisin with 30 µL buffer, and a control of each lipid with 30 µL HPLC-grade water were also incubated and subjected to the same workup. Silica TLC plates were run in a CHCl3/MeOH/H2O/NH3 (88/48/10/1 v/v) solvent system and stained using iodine vapour, phosphomolybdic acid (PMA), or KMnO4 stain, as well as visualisation at 254 nm and 365 nm.

B. subtilis 168 = assay type: cell-based; details: 168, 24 h
Description: MICs were measured in triplicate by microbroth dilution. An overnight culture of B. subtilis 168 (DSMZ German Collection of Microorganisms and Cell Cultures GmbH) was inoculated at 5 × 10^5 CFU/mL in cation-adjusted Mueller–Hinton broth (MHB II) with or without 15 mM or 100 mM CaCl2. Serial two-fold peptide dilutions (128 - 1 µg/mL for analogues and 16 - 0.25 µg/mL for daptomycin) were incubated in polypropylene U-bottom 96-well plates (200 µL final volume) at 37 °C for 24 h. MIC was the lowest concentration at which no growth was observed. Optical density measurements at 620 nm were performed using a Thermo Scientific Multiskan FC (Thermo Fisher Scientific Inc., Paisley, UK). MIC was determined from the lowest concentration at which no tubidity was observed, using an untreated positive growth control, and a broth-only sterility control as references.

[3] = TLC precursor-binding assay with C55-P; parameters: key to C55-P (TLC binding): “+” indicates binding confirmed; “-” indicates no binding; “~” indicates potential binding with absence of precursor band; details: for C55-P (TLC binding): peptide 0.5, 1, 2 equiv. with C55-P in Tris·HCl pH 7.5, 50 mM CaCl2, 1 h, silica TLC
Description: as §1

CCCCCCCCCC(=O)NC[C@@H](C)C(=O)NCC(=O)N[C@H](CCC(=O)OC(C)(C)C)C(=O)N[C@@H](Cc1ccc(OC(C)(C)C)cc1)C(=O)N[C@H](C(=O)N[C@@H](C(=O)N[C@@H](CC(=O)OC(C)(C)C)C(=O)N[C@@H](CC(=O)OC(C)(C)C)C(=O)N1CCC[C@H]1C(=O)O)[C@H](C)CC)[C@@H](C)OC(=O)CN(C)C(=O)[C@H](CC(=O)OC(C)(C)C)NC(=O)[C@@H](CCC(=O)OC(C)(C)C)NC(=O)CN
ring closure, overall yield [1]: 0.4%

CCCCCCCCCC(=O)NC[C@@H](C)C(=O)NCC(=O)N[C@H](CCC(=O)OC(C)(C)C)C(=O)N[C@@H](Cc1ccc(OC(C)(C)C)cc1)C(=O)N[C@H](C(=O)N[C@@H](C(=O)N[C@@H](CC(=O)OC(C)(C)C)C(=O)N[C@@H](CC(=O)OC(C)(C)C)C(=O)N1CCC[C@H]1C(=O)O)[C@H](C)CC)[C@@H](C)OC(=O)CN(C)C(=O)[C@H](CC(=O)OC(C)(C)C)NC(=O)[C@H](CC(=O)OC(C)(C)C)NC(=O)CN
ring closure, overall yield [1]: 0.4%

CCCCCCCCCC(=O)NC[C@@H](C)C(=O)NCC(=O)N[C@H](CCC(=O)OC(C)(C)C)C(=O)N[C@@H](Cc1ccc(OC(C)(C)C)cc1)C(=O)N[C@H](C(=O)N[C@@H](C(=O)N[C@@H](CC(=O)OC(C)(C)C)C(=O)N[C@@H](CC(=O)OC(C)(C)C)C(=O)N1CCC[C@H]1C(=O)O)[C@H](C)CC)[C@@H](C)OC(=O)CN(C)C(=O)[C@H](CC(=O)OC(C)(C)C)NC(=O)[C@H](CCC(=O)OC(C)(C)C)NC(=O)CN
ring closure, overall yield [1]: 0.2%

CCCCCCCCCC(=O)NC[C@@H](C)C(=O)NCC(=O)N[C@H](CCC(=O)OC(C)(C)C)C(=O)N[C@@H](Cc1ccc(OC(C)(C)C)cc1)C(=O)N[C@H](C(=O)N[C@@H](C(=O)N[C@@H](CC(=O)OC(C)(C)C)C(=O)N[C@@H](CC(=O)OC(C)(C)C)C(=O)N1CCC[C@H]1C(=O)O)[C@H](C)CC)[C@@H](C)OC(=O)CN(C)C(=O)[C@H](CCC(=O)OC(C)(C)C)NC(=O)[C@@H](CC(=O)OC(C)(C)C)NC(=O)CN
ring closure, overall yield [1]: 0.3%

CCCCCCCCCC(=O)NC[C@@H](C)C(=O)NCC(=O)N[C@H](CCC(=O)OC(C)(C)C)C(=O)N[C@@H](Cc1ccc(OC(C)(C)C)cc1)C(=O)N[C@H](C(=O)N[C@@H](C(=O)N[C@@H](CC(=O)OC(C)(C)C)C(=O)N[C@@H](CC(=O)OC(C)(C)C)C(=O)N1CCC[C@H]1C(=O)O)[C@H](C)CC)[C@@H](C)OC(=O)CN(C)C(=O)[C@H](CCC(=O)OC(C)(C)C)NC(=O)[C@@H](CCC(=O)OC(C)(C)C)NC(=O)CN
ring closure, overall yield [1]: 0.5%

CCCCCCCCCC(=O)NC[C@@H](C)C(=O)NCC(=O)N[C@H](CCC(=O)OC(C)(C)C)C(=O)N[C@@H](Cc1ccc(OC(C)(C)C)cc1)C(=O)N[C@H](C(=O)N[C@@H](C(=O)N[C@@H](CC(=O)OC(C)(C)C)C(=O)N[C@@H](CC(=O)OC(C)(C)C)C(=O)N1CCC[C@H]1C(=O)O)[C@H](C)CC)[C@@H](C)OC(=O)CN(C)C(=O)[C@H](CCC(=O)OC(C)(C)C)NC(=O)[C@H](CC(=O)OC(C)(C)C)NC(=O)CN
ring closure, overall yield [1]: 0.2%

CCCCCCCCCC(=O)NC[C@@H](C)C(=O)NCC(=O)N[C@H](CCC(=O)OC(C)(C)C)C(=O)N[C@@H](Cc1ccc(OC(C)(C)C)cc1)C(=O)N[C@H](C(=O)N[C@@H](C(=O)N[C@@H](CC(=O)OC(C)(C)C)C(=O)N[C@@H](CC(=O)OC(C)(C)C)C(=O)N1CCC[C@H]1C(=O)O)[C@H](C)CC)[C@@H](C)OC(=O)CN(C)C(=O)[C@H](CCC(=O)OC(C)(C)C)NC(=O)[C@H](CCC(=O)OC(C)(C)C)NC(=O)CN
ring closure, overall yield [1]: 1%

CCCCCCCCCC(=O)NC[C@@H](C)C(=O)NCC(=O)N[C@H](CCC(=O)O)C(=O)N[C@@H](Cc1ccc(O)cc1)C(=O)N[C@@H]1C(=O)N[C@H]([C@H](C)CC)C(=O)N[C@@H](CC(=O)O)C(=O)N[C@@H](CC(=O)O)C(=O)N2CCC[C@H]2C(=O)NCC(=O)N[C@H](CCC(=O)O)C(=O)N[C@@H](CC(=O)O)C(=O)N(C)CC(=O)O[C@@H]1C [Peptide C7a] (Decanoyl-[β2hAla(R)]G[dE]YT[dI]DDPG[dE]D[Sar]; ester 5-C)
binding to lipid II in TLC assay (in words) [2]: lack of binding | Lipid II (TLC binding) [2]: - | MIC + Ca^2+ (B. subtilis 168): 128 µg/mL | MIC − Ca^2+ (B. subtilis 168): 128 µg/mL (≈ 85.2 µM) | C55-P (TLC binding) [3]: -

CCCCCCCCCC(=O)NC[C@@H](C)C(=O)NCC(=O)N[C@H](CCC(=O)O)C(=O)N[C@@H](Cc1ccc(O)cc1)C(=O)N[C@@H]1C(=O)N[C@H]([C@H](C)CC)C(=O)N[C@@H](CC(=O)O)C(=O)N[C@@H](CC(=O)O)C(=O)N2CCC[C@H]2C(=O)NCC(=O)N[C@@H](CCC(=O)O)C(=O)N[C@@H](CC(=O)O)C(=O)N(C)CC(=O)O[C@@H]1C [Peptide C8] (Decanoyl-[β2hAla(R)]G[dE]YT[dI]DDPGED[Sar]; ester 5-C)
Lipid II (TLC binding) [2]: - | MIC + Ca^2+ (B. subtilis 168): 128 µg/mL | MIC − Ca^2+ (B. subtilis 168): 128 µg/mL (≈ 85.2 µM) | C55-P (TLC binding) [3]: -

CCCCCCCCCC(=O)NC[C@@H](C)C(=O)NCC(=O)N[C@H](CCC(=O)O)C(=O)N[C@@H](Cc1ccc(O)cc1)C(=O)N[C@@H]1C(=O)N[C@H]([C@H](C)CC)C(=O)N[C@@H](CC(=O)O)C(=O)N[C@@H](CC(=O)O)C(=O)N2CCC[C@H]2C(=O)NCC(=O)N[C@H](CCC(=O)O)C(=O)NCC(=O)N[C@@H](CCC(=O)O)C(=O)N(C)CC(=O)O[C@@H]1C [Peptide C9] (Decanoyl-[β2hAla(R)]G[dE]YT[dI]DDPG[dE]GE[Sar]; ester 5-C)
Lipid II (TLC binding) [2]: - | MIC + Ca^2+ (B. subtilis 168): 128 µg/mL | MIC − Ca^2+ (B. subtilis 168): 128 µg/mL (≈ 81.3 µM) | C55-P spot on TLC after incubation with peptide (in words) ([3]; absence of C55-P spot = potential indicator of binding, KMnO4 staining in Figure S5): a lack of binding | C55-P (TLC binding) [3]: -

CCCCCCCCCC(=O)N[C@@H](CC(=O)O)C(=O)N[C@H]1CNC(=O)[C@@H]2CCCN2C(=O)[C@H](C(C)C)NC(=O)[C@@H](CC(=O)O)NC(=O)CNC(=O)[C@H](CC(=O)O)NC(=O)[C@H](CC(=O)O)NC(=O)[C@H](CCCCN)NC(=O)[C@@H](C(C)C)NC1=O [Peptide M1] (Decanoyl-D[Dap][dV]KDDG[dD]VP; lactam 2-C)
Lipid II (TLC binding) [2]: - | MIC + Ca^2+ (B. subtilis 168): 128 µg/mL | MIC − Ca^2+ (B. subtilis 168): 128 µg/mL (≈ 108 µM) | C55-P (TLC binding) [3]: -

CCCCCCCCCC(=O)N[C@@H](CC(=O)O)C(=O)N[C@H]1CNC(=O)[C@@H]2CCCN2C(=O)[C@H](C(C)C)NC(=O)[C@@H](CC(=O)O)NC(=O)CNC(=O)[C@H](CC(=O)O)NC(=O)CNC(=O)[C@H](CC(=O)O)NC(=O)[C@H](CCCCN)NC(=O)[C@@H](C(C)C)NC1=O [Peptide M2] (Decanoyl-D[Dap][dV]KDGDG[dD]VP; lactam 2-C)
Lipid II (TLC binding) [2]: - | MIC + Ca^2+ (B. subtilis 168): 128 µg/mL | MIC − Ca^2+ (B. subtilis 168): 128 µg/mL (≈ 103 µM) | C55-P (TLC binding) [3]: -

CCCCCCCCCC(=O)N[C@@H](CC(=O)O)C(=O)N[C@H]1CNC(=O)[C@@H]2CCCN2C(=O)[C@H](C(C)C)NC(=O)[C@H](CC(=O)O)NC(=O)CNC(=O)[C@H](CC(=O)O)NC(=O)CNC(=O)[C@H](CC(=O)O)NC(=O)[C@H](CCCCN)NC(=O)[C@@H](C(C)C)NC1=O [Peptide M3] (Decanoyl-D[Dap][dV]KDGDGDVP; lactam 2-C)
binding to lipid II in TLC assay (in words) [2]: lack of binding | Lipid II (TLC binding) [2]: - | MIC + Ca^2+ (B. subtilis 168): 128 µg/mL | MIC − Ca^2+ (B. subtilis 168): 128 µg/mL (≈ 103 µM) | C55-P (TLC binding) [3]: -

CCCCCCCCCC(=O)N[C@@H](CC(=O)O)C(=O)N[C@H]1CNC(=O)[C@@H]2CCCN2C(=O)[C@H](C(C)C)NC(=O)CNC(=O)[C@@H](CC(=O)O)NC(=O)CNC(=O)[C@H](CC(=O)O)NC(=O)[C@H](CC(=O)O)NC(=O)[C@H](CCCCN)NC(=O)[C@@H](C(C)C)NC1=O [Peptide M4] (Decanoyl-D[Dap][dV]KDDG[dD]GVP; lactam 2-C)
Lipid II (TLC binding) [2]: - | MIC + Ca^2+ (B. subtilis 168): 128 µg/mL | MIC − Ca^2+ (B. subtilis 168): 128 µg/mL (≈ 103 µM) | C55-P (TLC binding) [3]: -

CCCCCCCCCC(=O)N[C@@H](CC(=O)O)C(=O)N[C@H]1CNC(=O)[C@@H]2CCCN2C(=O)[C@H](C(C)C)NC(=O)CNC(=O)[C@H](CC(=O)O)NC(=O)CNC(=O)[C@H](CC(=O)O)NC(=O)[C@H](CC(=O)O)NC(=O)[C@H](CCCCN)NC(=O)[C@@H](C(C)C)NC1=O [Peptide M5] (Decanoyl-D[Dap][dV]KDDGDGVP; lactam 2-C)
Lipid II (TLC binding) [2]: - | MIC + Ca^2+ (B. subtilis 168): 128 µg/mL | MIC − Ca^2+ (B. subtilis 168): 128 µg/mL (≈ 103 µM) | C55-P (TLC binding) [3]: -
